Consider 15 compounds from US6974830B2, “NR1H4 nuclear receptor binding compounds” (Phenix Pharmaceuticals AG, priority 2001, dated 2005).

Read-outs that look alike come from different tables or passages of the source.

For experiment [1], the target named is T1, full length human FXR (Homo sapiens, UniProt Q96RI1).
T1 construct: expressed in transfected cells
T1 sequence (Q96RI1 1-472 isoform Q96RI1-2): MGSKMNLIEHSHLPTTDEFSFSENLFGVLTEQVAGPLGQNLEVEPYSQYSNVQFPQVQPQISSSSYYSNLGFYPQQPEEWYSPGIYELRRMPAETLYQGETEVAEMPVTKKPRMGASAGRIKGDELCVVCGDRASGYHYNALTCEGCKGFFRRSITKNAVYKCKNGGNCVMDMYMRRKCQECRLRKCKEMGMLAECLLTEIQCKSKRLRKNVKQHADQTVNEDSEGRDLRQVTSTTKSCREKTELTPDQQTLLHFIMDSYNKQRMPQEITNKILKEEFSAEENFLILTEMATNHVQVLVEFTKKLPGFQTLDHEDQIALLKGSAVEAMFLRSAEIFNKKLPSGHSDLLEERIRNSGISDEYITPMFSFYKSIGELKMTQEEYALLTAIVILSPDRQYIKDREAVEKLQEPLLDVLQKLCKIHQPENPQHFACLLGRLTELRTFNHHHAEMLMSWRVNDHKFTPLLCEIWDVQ
T1 sequence (P19793 1-462 partner): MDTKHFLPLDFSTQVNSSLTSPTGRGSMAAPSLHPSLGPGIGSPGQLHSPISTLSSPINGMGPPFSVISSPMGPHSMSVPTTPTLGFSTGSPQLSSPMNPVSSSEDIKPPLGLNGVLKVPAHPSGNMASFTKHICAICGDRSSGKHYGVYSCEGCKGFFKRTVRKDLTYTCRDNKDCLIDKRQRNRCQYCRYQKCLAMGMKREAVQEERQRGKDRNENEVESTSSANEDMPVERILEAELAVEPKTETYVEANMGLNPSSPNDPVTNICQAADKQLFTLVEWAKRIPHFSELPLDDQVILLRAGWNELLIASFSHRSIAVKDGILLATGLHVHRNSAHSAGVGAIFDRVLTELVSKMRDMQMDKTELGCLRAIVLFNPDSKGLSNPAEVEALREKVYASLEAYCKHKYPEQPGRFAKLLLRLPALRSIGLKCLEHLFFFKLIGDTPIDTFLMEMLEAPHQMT
Nature of the experiment: transactivation of FXR mediated transcription in a HEK293 reporter cell line (luciferase). The format is cell-based. Conditions: for Emax: HEK293, read-out: EFFIC AVG (average efficacy, % activity relative to CDCA control agonist), relative to CDCA control agonist; for EC50: HEK293 FXR reporter cell line. The source says:
Tables 3, 4, 5 and 6 illustrate the preferred compounds according to the invention that can mediate transactivation of FXR mediated transcription in a HEK293 reporter cell line.
Stable HEK293FXR reporter cell lines were generated by stably transfecting with the pTRexDest30 (Invitrogen) derivatives pTRexDest30-hFXR, pTRexDest30-hRXR and the pGL2promoter (Promega) derivative pGL2promoter-FXRRE. The full length human FXR (accession U68233) and the full length human RXRα (accession P19793) were cloned into the pTRexDest30 applying the manufacturer protocols for the Gateway™ system (Invitrogen).
The FXR response elements were cloned (upper case and undrelined). 5′-cccaGGGTGAaTAACCTcggggctctgtccctccaatcccaGGGTGAaTAACCTcggg 3′ (SEQ ID NO. 5) was created from the human IBAB-P promoter (Grober et al 1999, JBC 274, pp. 29749-29754). A stable clone was selected and seeded at a density of […] cells per well in 48 well plates. Luciferase reporter activity was measured in duplicates from extracts of cells after incubating cells in culture medium (DMEM [Gibco-BRL]+10% FCS [PAA laboratories]) for 16 hours (5% CO2, 37° C.) containing 0.5% DMSO (control) or 0.5% DMSO with increasing concentrations of TR0800012996.

The target of experiment [2] is T2, human FXR alpha (NR1H4) (Homo sapiens, UniProt Q96RI1).
T2 construct: agonist activity at the NR1H4 human nuclear receptor; fused on or other part: GST at the N-terminus (pDest15) in the TR-FRET test
T2 sequence (Q96RI1 1-486): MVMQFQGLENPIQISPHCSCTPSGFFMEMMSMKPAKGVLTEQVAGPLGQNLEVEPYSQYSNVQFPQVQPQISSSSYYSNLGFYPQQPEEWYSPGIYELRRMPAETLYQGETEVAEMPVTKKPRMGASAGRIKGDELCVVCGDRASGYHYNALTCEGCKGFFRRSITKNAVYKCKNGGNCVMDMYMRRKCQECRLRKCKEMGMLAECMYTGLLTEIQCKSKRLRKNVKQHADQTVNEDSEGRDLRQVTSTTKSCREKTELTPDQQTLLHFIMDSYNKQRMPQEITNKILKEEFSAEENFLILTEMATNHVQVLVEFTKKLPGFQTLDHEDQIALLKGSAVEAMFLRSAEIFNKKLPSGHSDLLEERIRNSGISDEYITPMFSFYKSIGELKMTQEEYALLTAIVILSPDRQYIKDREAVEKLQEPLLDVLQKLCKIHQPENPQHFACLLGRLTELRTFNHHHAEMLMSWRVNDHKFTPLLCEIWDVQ
Nature of the experiment: FXR binding / FXR-Tif 2 coactivator interaction, LANCE TR-FRET. As to the method: In particular, the invention relates to compounds as described above wherein the compounds are capable of binding the NR1H4 receptor protein or a portion thereof according to SEQ ID NOS 1-4 shown in FIGS. 4A-4D, respectively, or a mammalian homologue thereof. The claimed compound can bind to the NR1H4 receptor protein or a portion thereof in a mixture comprising 10-200 ng of NR1H4 receptor protein or a portion thereof, preferably the ligand binding domain, 20 mM Tris/HCl at pH 7.9; 60 mM KCl; 5 mM MgCl2; 160 ng/μl BSA in a total volume of preferably about 25 μl.
For in vitro screening for compounds which influence FXR binding to coactivators, a fragment of the open reading frame of human FXR alpha (NR1H4-(Acc. No:AF384555)) encoding aminoacids 187-472 was amplified by standard RT PCR procedures (see SEQ ID NOS. 1 and 2 in FIGS. 4A and 4B, respectively). The starting material was total RNA derived from human liver. The resulting cDNA obtained after reverse transcription was subsequently cloned using the Gateway™ recombination technology (Invitrogen, USA) into the expression plasmid pDest15 (Invitrogen, USA). This construct was used to express a recombinant GST-FXR fusion protein in E. coli (BL21 strain). A pDEST 17 derivative clone harboring an additional sequence encoding amino acids 548-878 of human TIF2 (Acc. No: XM—011633 RefSeq) was constructed using Gateway™ recombination technology (Invitrogen, USA) in order to obtain a construct which was used to express recombinant His-tagged TIF2 fragment in E. coli. For E. coli expression of both constructs, plasmid DNA was transformed into chemically competent E. coli BL21 (Invitrogen, USA) and cells were grown to an OD600 of 0.4-0.7 before expression was induced by addition of 0.5 mM IPTG according instructions of the manufacturer (Invitrogen). After induction for 8 hours at 30° C., the cells were harvested by centrifugation for 10 minutes at 5000×g. Fusion proteins were affinity purified using Glutathion sepharose (Pharmacia) or Ni-NTA Agarose (QIAGEN) according to the instructions of the respective manufacturer. Recombinant proteins were dialyzed against 20 mM Tris/HCL pH 7.9; 60 mM KCl; 5 mM MgCl2; 1 mM DTT, 0.2 mM PMSF; 10% glycerol. The TIF2 fragment was subsequently biotinylated by addition of 40-120 μl of a biotinamidocaproate N-hydroxysuccinimide-ester (Sigma) solution (20 mg/ml in DMSO). […]
For screening of the compound libraries as provided for by the methods described in Examples 2, 3 and 4 below for substances which influence the FXR/Tif 2 interaction, Perkin Elmer LANCE technology was used. […] For ease of handling and reduction of background from compound fluorescence, LANCE technology makes use of generic fluorophore labels and time resoved detection. […]

Regarding `O=C(O)C1CCC(CNc2nc(-c3ccccc3O)c(Cc3c(F)cccc3F)s2)CC1` (stereo not shown) [LN0000006316], the Emax turned out to be 309% in experiment [1] (Table 6) and 110% in experiment [1] (Tables 3-5). The EC50 in experiment [1] (Tables 3-5) was 0.2 µM.
The like results for `O=C(O)c1ccc(CNc2nc(-c3ccccc3O)c(Cc3c(F)cccc3F)s2)cc1` [LN0000006317] were, in that order, 223%, 115% and 1.45 µM.
As for `O=C(O)C1CCC(CNc2nc(-c3ccccc3O)c(Cc3cccc(F)c3F)s2)CC1` (stereo not shown) [LN0000006322], the Emax in experiment [1] (Tables 3-5) is 115%.
`O=C(O)c1ccc(CNc2nc(-c3ccccc3O)c(Cc3cccc(F)c3F)s2)cc1` [LN0000006323]: in experiment [1] (Tables 3-5), the Emax was found to be 86% and the EC50 worked out at 0.44 µM.
Regarding `COc1ccccc1Cc1sc(NCC2CCC(C(=O)O)CC2)nc1-c1ccccc1O` (stereo not shown) [LN0000006328], in experiment [1] (Tables 3-5), the Emax was 116% and the EC50 was determined as 4.5 µM.
With `COc1ccccc1Cc1sc(NCc2ccc(C(=O)O)cc2)nc1-c1ccccc1O` [LN0000006329], in experiment [1] (Tables 3-5), the Emax was 105% and the EC50 was 0.73 µM.
Regarding `O=C(O)CCCCCNc1nc(-c2ccccc2O)c(Cc2cccc(F)c2F)s1` [LN0000006346], in experiment [1] (Tables 3-5), the Emax was found to be 63% and the EC50 is 5.12 µM.
Turning to `COc1ccccc1Cc1sc(NCCCCCC(=O)O)nc1-c1ccccc1O` [LN0000006347], in experiment [1] (Tables 3-5), the Emax stood at 66% and the EC50 amounted to 3.1 µM.
In the same order, the values of `O=C(O)C1CCC(CNc2nc(-c3cccc(O)c3)c(Cc3c(F)cccc3F)s2)CC1` (stereo not shown) [LN0000006348] are 109% and 2.39 µM.
Turning to `O=C(O)c1ccc(CNc2nc(-c3cccc(O)c3)c(Cc3c(F)cccc3F)s2)cc1` [LN0000006349], in experiment [1] (Tables 3-5), the Emax worked out at 66% and the EC50 came out at 4.05 µM.
Take `O=C(O)C1CCC(CNc2nc(-c3cccc(O)c3)c(Cc3c(Cl)cccc3Cl)s2)CC1` (stereo not shown) [LN0000006365]: the Emax in experiment [1] (Table 6) came to 340%. Also, in experiment [1] (Tables 3-5), the Emax stood at 92% and the EC50 came to 0.36 µM.
With `O=C(O)C1CCC(CNc2nc(-c3ccccc3O)c(Cc3c(F)cccc3F)s2)CC1` (stereo not shown) [formula (III)], in experiment [2] (read-out: EC50 (effective binding concentration at FXR, half-maximal effective concentration)), the EC50 came to 0.2 µM.
For the compound `O=C(O)C1CCC(CNc2nc(-c3cccc(O)c3)c(Cc3c(Cl)cccc3Cl)s2)CC1` (stereo not shown) [formula (IV)], the “agonist activity at the NR1H4 human nuclear receptor” value in experiment [2] is reported as “active as agonist”.
Still for that read-out and setting: the same measure for `O=C(O)c1ccc(CNc2nc(-c3ccccc3O)c(Cc3cccc(F)c3F)s2)cc1` [formula (V)]: “active as agonist”; for `COc1ccccc1Cc1sc(NCc2ccc(C(=O)O)cc2)nc1-c1ccccc1O` [formula (VI)]: “active as agonist”.
